Experimental data from US10166290B2, “Intralesional (Intratumoral) dinitrochlorobenzene and associated compounds coadministered with checkpoint inhibitors for cancer treatment including treatment of metastatic cutaneous cancers” (priority 2017, dated 2019).
Like-named read-outs stand apart in the source and are kept apart here.

What was measured:
[1] = tested on: metastatic cutaneous tumor nodules; settings: some 53 rounds of intralesional treatment, published data (3), cited from earlier work
[2] = Solubility of DNCB powder in acetone; type: physicochemical; settings: acetone diluent
From the text: (§1) A drug mask and latex gloves should be used when working with the DNCB powder while preparing its dilution and preparation for injection. […] It should be noted that DNCB powder is irritating, and is also immunogenic because of its haptene like properties. […] Therefore preadministration of lidocaine or another injectable anesthetic should be used to infiltrate the tumor nodule injection site prior to the injection into the same site of the DNCB solution in acetone.

[3] = tested on: progressive, locally metastatic melanoma; assay: Intralesional DNCB injections into melanoma satellite / in transit metastatic lesions, case reports of three patients; type: in vivo, human
From the text: Following are the case reports of three long term (over ten year) survivors treated with intralesional DNCB in the setting of what was apparently uncontrollable, progressive, locally metastatic melanoma, ordinarily lethal as a result of subsequent progressive metastatic disease to the liver, lungs and/or brain.
Patient #1 was […] when they presented for treatment with progressive satellitosis and in transit metastases in their right leg. Four years previously they had undergone elsewhere a wide excision and split thickness skin grafting for a Clark Level IV melanoma of their right calf. […] One month prior to their presentation with satellitosis, recurrence had been noticed in the skin of the right popliteal fossa, and slightly higher. Their surgeon had planned to do a local excision in the region but had desisted when, at the time of their skin incision, multiple metastatic deposits were grossly visible in the deep dermal and subcutaneous regions. […] Two weeks after presentation, at the time of their first round of intralesional injections, the patient was noted to have 14 metastatic lesions in the posterior thigh region. These were each infiltrated with xylocaine and injected with DNCB. Each lesion was individually marked and followed. It was later estimated that 13 of the 14 lesions injected on this round ultimately regressed. A month after the first round of injections the patient underwent a second round of injections into five lesions on the posterior thigh. Four weeks after their second round of injections, a third round of injections was carried out for 10 lesions which had newly appeared. […] Accordingly the patient was taken to the operating room and an excision was carried out. […]
Patient #3 was […] when they saw their local physician in upstate New York because of a pigmented posterior scalp lesion. Biopsy at that time was originally read as a (benign) blue nevus. […] The reoccurance led to a rebiopsy, now one year after the original biopsy which had been read as benign. […]

[4] = Side effects of intralesional DNCB injections in the case reports; type: in vivo, human
From the text: Patient #3 was […] when they saw their local physician in upstate New York because of a pigmented posterior scalp lesion. Biopsy at that time was originally read as a (benign) blue nevus. The diagnosis was later felt to be incorrect after a recurrent lesion at the same location continued to advance, becoming larger and bleeding when they combed their hair. The reoccurance led to a rebiopsy, now one year after the original biopsy which had been read as benign. […] A re-review of the slides from the first biopsy was then carried out. […] The patient was referred to the Memorial Sloane Kettering Hospital in New York City and was prepared for urgent wide excision and skin grafting of their posterior scalp lesions. […] The operative procedure was cancelled and the patient was referred. At the time of presentation initial radiographic evaluation for distant disease was negative. They received intralesional DNCB injections of between two and 10 satellite lesions every 4-6 weeks. On several occasions histologic or fine needle aspiration biopsy was carried out to continue to confirm the malignant nature of the lesions before intralesional injection. Biopsies were also carried out in order to confirm the absence of malignant cells in some post-injection inflammatory sites. […] Four months after their presentation, they were noted to have fewer than usual malignant lesions for injection, and received only 2 DNCB injections. However 1 month later they underwent 10 DNCB injections. One month after that they underwent DNCB injections of 8 malignant scalp lesions. Another month later they underwent intralesional DNCB injection of 10 malignant satellite scalp lesions. One and two months later they underwent DNCB injection of 8 lesions on each of the two visits. Five weeks later and 5 weeks after that, 2 lesions were injected on each visit. Chest xray and distant metastatic evaluations remained negative. The injection sites were being routinely pre-anesthetized with 0.5% lidocaine injections containing 1:100,000 epinephrine a few minutes before the injections with DNCB in acetone. Nevertheless the DNCB injection sites were uncomfortable for 4-6 hours after the lidocaine wore off, frequently with slight residual “soreness” the next day. Their last-mentioned round of two injections took place 11 months after the beginning of their injections. No new lesions were apparent for the next 2 months. The patient reported that after this last mentioned round of two injections, there was residual scalp discomfort for 8 days. […] Their strength and activity remained normal, including frequent vigorous dancing with their spouse. They often brought photographs of their scalp taken between visits. They occasionally reported sensations in uninjected areas in the scalp, ear or mastoid regions. No new lesions were apparent for 2 months.
as §1

For `O=[N+]([O-])c1ccc(Cl)c([N+](=O)[O-])c1` [DNCB, 2, 4 dinitrochlorobenzene], the “side effects of intralesional treatment” value [1] is given as “local, consisting of erythema or ulceration, not life-threatening, and not associated with any internal organ damage or defects”, the “side effects of intralesional treatment” value ([1]; listed as dinitrochlorobenzene) is given as “without the undesirable checkpoint inhibitor potential side effect of attacks against normal organs” and the “side effects of intralesional treatment” value ([1]; listed as dinitrohalogenated compound) is given as “side effects essentially restricted to only side effects related to inflammation at the local injection sites”. For the same compound, the solubility in acetone [2] was “ready solubility”, the “time apparently disease free between last injections and death” value ([3]; Patient #1, after sixth round of injections) was 30 years and the “time patient remained well with no evidence of metastasis after end of injections” value ([3]; Patient #2) was 12 years. For the same compound, the “period with no apparent melanoma following last intralesional injection” value ([3]; Patient #3) was 18 year, the “constitutional symptoms such as fatigue, fever, or malaise” value ([4]; Patient #3) was “no constitutional symptoms” and the “duration of injection site discomfort after the lidocaine wore off” value ([4]; Patient #3, DNCB in acetone, sites pre-anesthetized with 0.5% lidocaine) was 4 to 6 h. The “facial swelling after injections” value ([4]; Patient #3, after round of 3 lesions injected) was “mild facial swelling for a few days”, the “duration of residual scalp discomfort” value ([4]; Patient #3, after round of two injections 11 months after beginning) was 8 days and the “local effect of the DNCB solution in acetone on injection” value ([4]; solution in acetone) was “irritating locally, and causes pain at the injection site”.
